In patent publication US20230151434A1, “REAWAKENING OF DORMANT TUMOR CELLS BY MODIFIED LIPIDS DERIVED FROM STRESS ACTIVATED NEUTROPHILS” (The Wistar Institute of Anatomy and Biology, priority 2020, published 2023):
Where two headings read alike, the source gives them in different places.

Key:
PMN [1] = experiment: S100A8/A9 release by PMN measured by ELISA; type: cell-based, mouse
Method: PMN or PMN-MDSC were isolated from spleen of tumor-free mice or LLC tumor-bearing mice, respectively. A total of 5×10^5 LLC cells were injected into the right flank of mice, and spleens were harvested when tumors reached 200 mm^2. Spleens were mechanically dissociated. Red blood cells were lysed with ACK buffer cells. Splenocytes were stained with mouse biotin-conjugated Ly6G antibody (Miltenyi Biotec) followed by biotin microbeads. Ly6G+ cells were purified by magnetic separation with MACS column for magnetic cell isolation, according to the manufacturer's instructions (Miltenyi Biotec).
One hundred microliters of mouse peripheral blood was collected from facial vein. NE was measured by a mouse NE ELISA Kit (Novus Biologicals). S100A8/A9 was measured by Mouse S100A8/S100A9 Heterodimer DuoSet ELISA (R&D Systems). S100A8/A9 concentrations in human serum samples were determined by using a double-sandwich ELISA system as previously described (64), which is different from commercial ELISA kits. Human NE was measured using an ELISA kit (Abnova).

KPr^p53A cells = experiment: In vitro co-culture of dormant tumor cells with PMN (count of GFP+ cells); type: cell-based, mouse; details: for reactivation/proliferation of KPr^p53A cells cultured with PMN plus supplement: supplement added with PMN, LPS 0.5 to 2 μg/ml
Method: (§1) The KPr cell line (16) was maintained in RPMI 1640 medium (Corning) and 10% FBS (Gibco). Treatment of KPr cells with 250 nM 4-hydroxytamoxifen (4-OHT, Sigma-Aldrich) induced p53 expression. p53-induced cells (KPr^p53) were stained with CellTrace dye for 20 min at 37° C. according to the manufacturer's instructions (Life Technologies) and seeded at 8500 cells/cm^2 in culture in a T175 tissue culture-treated flask (Gibco). After 7 days, cells were detached and sorted based on the CellTrace dye intensity as proliferating (KPr^p53P, with lower CellTrace) and arrested cells (KPr^p53A, with higher-intensity CellTrace; see FIG. 1A for representative image). LL2 cells were seeded at 1000 cells/cm2 and treated for 3 days with 2.5 μM cisplatin (Selleckchem). After that, cells were stained with CellTrace and sorted as described above. OVCAR3 cell senescence was induced by treating 5×10^4 cells/cm2 with 0.5 μM cisplatin for 72 hours. After that time, cells were stained with CellTrace and sorted. A549 senescence was induced by 72-hour treatment with 4 μM cisplatin and cells were sorted after staining with CellTrace. Time points for sorting were chosen as the best to observe separation between arrested and proliferating cells. Cells were sorted on Astrios (Beckman Coulter) or Melody (Becton Dickinson) fluorescence-activated cell sorters.
(§2) Arrested tumor cells were plated at 100 cells/cm^2 in a 48-well tissue culture-treated plate (Costar) for coculture experiments. After 24 hours, PMN-MDSC or PMN were added at indicated ratios. Cocultures were maintained for 48 hours in RPMI 1640+10% FBS in the presence of mouse recombinant GM-CSF (10 ng/ml; Rocky Hill) to ensure neutrophil viability. All control conditions were in the presence of media with GM-CSF. All indicated supplements (NE, S100A8/A9, BGJ398, ICI 118-551, IL-2, MPO inhibitor, LPS, lipids, PMA, and thapsigargin 1 μM) were added to culture at the same time as PMN and maintained for 48 hours. After that, media were removed and replaced by fresh media without GM-CSF. After 1 week, GFP^+ cells in wells were counted via an inverted microscope. When lipid extracts were used, lipids were added to dormant cells in culture at 1 to 0.05 or 0.01 nmol as indicated in each experiment.

[2] = tested on: LL2^cisA and AT-3^DoxA cells; experiment: In vitro co-culture of chemotherapy-arrested mouse tumor cells with PMN; type: cell-based; details: LL2^cisA, AT-3^DoxA
Method: as §1, §2

[3] = tested on: A549^cisA and OVCAR3^cisA cells; experiment: In vitro co-culture of chemotherapy-arrested human tumor cells with human PMN; type: cell-based; details: A549^cisA, OVCAR3^cisA
Method: as §1, §2

PMN [4] = experiment: PMN viability (proportion of live PMN); type: cell-based, mouse
Method: FIG. 2A-FIG. 2K show neutrophil-mediated reactivation of dormant cells is regulated by stress-induced S100A8/A9. (FIG. 2A) Fold increase in the number of KPr^p53A cells cultured in the presence of PMN and S100A8/A9 or indicated cytokines relative to KPr^p53A cells cultured with PMN. Three independent experiments with 16 replicates were performed. Mean±SEM of one experiment is shown. (FIG. 2B) Fold increase in the number of KPr^p53A cells cultured in the presence of PMN and LPS relative to KPr^p53A cells cultured with PMN or alone. Means±SEM of three independent experiments with 16 replicates each are shown. (FIG. 2C) Fold increase in the number of KPr^p53A cells cultured in the presence of S100A8/A9 alone, PMN and S100A8/A9, or PMN-MDSC relative to KPr^p53A cultured alone. Means±SEM of 10 independent experiments with 16 replicates each are shown. (FIG. 2D) S100A8/A9 protein produced by PMN after treatment with indicated hormones or LPS was measured by ELISA. PMN-MDSC were isolated from spleens of Lewis lung carcinoma tumor-bearing mice. Means±SEM and results of each independent experiment with three replicates are shown. (FIG. 2E) S100A8/A9 protein secreted in vitro from PMN and PMN treated with NE with or without ICI-118; […] as measured by ELISA. Means±SEM and results of independent experiment with three replicates are shown. (FIG. 2F) Flow cytometry staining of ADRB2 receptor (dark gray) on PMN isolated from mouse spleen. Isotype control, light gray. Representative histogram of three experiments is shown. (FIG. 2G) Fold increase in the number of KPr^p53A cells cultured with PMN alone, NE alone, PMN and NE together, and PMN and NE plus ICI-118; 553 relative to KPr^p53A cells cultured alone (Ctrl). Ten independent experiments with 16 replicates for each experiment were performed. Means±SEM in a representative experiment are shown. (FIG. 2H) Number of KPr^p53A cells cultured in the presence of PMN from S100a9KO mice alone or together with NE relative to KPr^p53A cells cultured alone (ctrl). Means±SEM are reported for 16 replicates. (FIG. 2I) Percentage of live PMN after overnight incubation with NE, S100A8/A9, or LPS. Each dot represents the average of three experimental replicates of one single experiment. Means±SEM are shown for each group. (FIG. 2J) Fold increase in number of LL2^CisA cells cultured with PMN alone or together with S100A8/A9 or NE relative to LL2^CisA cultured alone (Ctrl). Means±SEM of three independent experiments with 16 replicates each are shown. […] In all panels, P values were calculated using ANOVA test with correction for multiple comparisons.
FIG. 11A-FIG. 11G show the mechanism of dormant tumor cell reactivation. […] P values were calculated by ANOVA test with correction for multiple comparisons. […]

[5] = tested on: LL2, A549 and OVCAR3 cells; experiment: Cisplatin-induced tumor cell dormancy; type: cell-based, mouse; human; details: LL2 2.5 μM, A549 4 μM, OVCAR3 0.5 μM, 72 hours
Method: as §1, with “sorters. […]” for “sorters.”

[6] = PMN treated with stress hormones or LPS

Molecule: NC[C@H](O)c1ccc(O)c(O)c1 [NE, norepinephrine]
- S100A8/A9 release by PMN (PMN [1]; [6]): caused rapid release of S100A8/A9 proteins
- reactivation/proliferation of KPr^p53A cells, supplement alone (KPr^p53A cells; absence of PMN): did not affect the proliferation of KPr^p53A cells
- reactivation/proliferation of KPr^p53A cells cultured with PMN plus supplement (KPr^p53A cells): caused proliferation of tumor cells
- proliferation of arrested mouse tumor cells cultured with mouse PMN plus supplement [2]: reactivated dormant mouse and human tumor cells
- reactivation of arrested human tumor cells cultured with human PMN plus supplement [3]: reactivated dormant mouse and human tumor cells
- PMN viability (PMN [4]): did not affect PMN viability

Molecule: CCCCCCCCCCCCCC(=O)O[C@@H]1[C@@H](C)[C@@]2(O)[C@@H](C=C(CO)C[C@]3(O)C(=O)C(C)=C[C@@H]23)[C@@H]2C(C)(C)[C@]12OC(C)=O [PMA, phorbol 12-myristate 13-acetate]
- reactivation/proliferation of KPr^p53A cells cultured with PMN plus supplement (KPr^p53A cells): did not induce their ability to reactivate dormant KPr^p53A cells

Molecule: N.N.[Cl][Pt][Cl] [cisplatin]
- induction of proliferation arrest / senescence-like phenotype in tumor cells [5]: caused a senescence-like phenotype in tumor cells in vitro
- induction of proliferation arrest / senescence-like phenotype in tumor cells ([5]; listed as Cisplatin): generated proliferation-arrested cells

Molecule: C[C@]12CCC(=O)C=C1CC[C@@H]1[C@@H]2[C@@H](O)C[C@@]2(C)[C@H]1CC[C@]2(O)C(=O)CO [cortisol]
- S100A8/A9 release by PMN (PMN [1]; [6]): caused rapid release of S100A8/A9 proteins

Molecule: CNC[C@H](O)c1ccc(O)c(O)c1 [epinephrine]
- S100A8/A9 release by PMN (PMN [1]): caused rapid release of S100A8/A9 proteins

Molecule: NCCc1c[nH]c2ccc(O)cc12 [serotonin]
- S100A8/A9 release by PMN (PMN [1]; [6]): caused rapid release of S100A8/A9 proteins

Molecule: C/C=C(/C)C(=O)O[C@H]1C(C)=C2[C@H]([C@@H]1OC(=O)CCCCCCC)[C@@](C)(OC(C)=O)C[C@H](OC(=O)CCC)[C@@]1(O)[C@H]2OC(=O)[C@@]1(C)O [thapsigargin]
- reactivation/proliferation of KPr^p53A cells cultured with PMN plus supplement (KPr^p53A cells): did not induce their ability to reactivate dormant KPr^p53A cells

Molecule: IL-6: proinflammatory cytokine
- reactivation/proliferation of KPr^p53A cells cultured with PMN plus supplement (KPr^p53A cells): did not induce their ability to reactivate dormant KPr^p53A cells

Molecule: Lipopolysaccharide [LPS]
- reactivation/proliferation of KPr^p53A cells cultured with PMN plus supplement (KPr^p53A cells): did not affect the ability of PMN to reactivate KPr^p53A cells
- PMN viability (PMN [4]; overnight incubation): markedly reduced it

Molecule: PE (18:0p/20:4) [Untreated PE]
- proliferation of KPr^p53A cells cultured with lipids (KPr^p53A cells; lipids added to dormant cells, no PMN): did not activate proliferation of KPr^p53A cells

Molecule: TNF a
- reactivation/proliferation of KPr^p53A cells cultured with PMN plus supplement (KPr^p53A cells): did not induce their ability to reactivate dormant KPr^p53A cells

B1: human S100A8/A9: human recombinant S100A8/A9 (protein, UniProt P05109 1-93; P06702 1-114, looked up)
Protein S100-A8: MLTELEKALNSIIDVYHKYSLIKGNFHAVYRDDLKKLLETECPQYIRKKGADVWFKELDINTDGAVNFQEFLILVIKMGVAAHKKSHEESHKE
Protein S100-A9: MTCKMSQLERNIETIINTFHQYSVKLGHPDTLNQGEFKELVRKDLQNFLKKENKNEKVIEHIMEDLDTNADKQLSFEEFIMLMARLTWASHEKMHEGDEGPGHHHKPGLGEGTP
- reactivation of arrested human tumor cells cultured with human PMN plus supplement [3]: reactivation of A549^cisA and OVCAR3^cisA cells

B2: IL-10: proinflammatory cytokine as printed (protein, UniProt P22301 19-178, looked up)
Interleukin-10: SPGQGTQSENSCTHFPGNLPNMLRDLRDAFSRVKTFFQMKDQLDNLLLKESLLEDFKGYLGCQALSEMIQFYLEEVMPQAENQDPDIKAHVNSLGENLKTLRLRLRRCHRFLPCENKSKAVEQVKNAFNKLQEKGIYKAMSEFDIFINYIEAYMTMKIRN
- reactivation/proliferation of KPr^p53A cells cultured with PMN plus supplement (KPr^p53A cells): did not induce their ability to reactivate dormant KPr^p53A cells
